Measurements taken from the NIST ThermoML archive (doi:10.1016/j.jct.2015.02.023).
Numbers after ± are expanded uncertainties.

Legend:
[1] = 101.33 kPa, Liquid, Vibrating tube method
[2] = activity coefficient (dimensionless); of the first substance listed, at infinite dilution; xn = mol fraction of the nth substance listed; details: 101.33 kPa, Liquid, Chromatography, x1 = 0

SMILES: CO[PH](=O)[O-].Cn1cc[n+](C)c1 [1,3-dimethylimidazolium methyl phosphonate]
- mass density ([1]; 293.15 K): 1252.5 ± 1.8 kg/m3
- mass density ([1]; 303.15 K): 1246.4 ± 1.8 kg/m3
- mass density ([1]; 313.15 K): 1241.7 ± 1.8 kg/m3
- mass density ([1]; 323.15 K): 1233.4 ± 1.8 kg/m3
- mass density ([1]; 333.15 K): 1227.2 ± 1.7 kg/m3
- mass density ([1]; 343.15 K): 1220.8 ± 1.7 kg/m3

SMILES: CCn1cc[n+](C)c1.CO[PH](=O)[O-] [1-ethyl-3-methylimidazolium methyl phosphonate]
- mass density ([1]; 293.15 K): 1190.6 ± 1.6 kg/m3
- mass density ([1]; 303.15 K): 1184.1 ± 1.6 kg/m3
- mass density ([1]; 313.15 K): 1180.1 ± 1.6 kg/m3
- mass density ([1]; 323.15 K): 1174 ± 1.6 kg/m3
- mass density ([1]; 333.15 K): 1168.7 ± 1.6 kg/m3
- mass density ([1]; 343.15 K): 1163.2 ± 1.5 kg/m3

SMILES: CO [methanol] + CCn1cc[n+](C)c1.CO[PH](=O)[O-]
- activity coefficient ([2]; 333.15 K): 0.072 ± 0.03
- activity coefficient ([2]; 353.15 K): 0.078 ± 0.03
- activity coefficient ([2]; 373.15 K): 0.088 ± 0.03

SMILES: CO [methanol] + CO[PH](=O)[O-].Cn1cc[n+](C)c1
- activity coefficient ([2]; 343.15 K): 0.07 ± 0.03

SMILES: CC1CCCCC1 [methylcyclohexane] + CCn1cc[n+](C)c1.CO[PH](=O)[O-]
- activity coefficient ([2]; 313.15 K): 211 ± 15
- activity coefficient ([2]; 333.15 K): 70.8 ± 4.9

SMILES: CC1CCCCC1 [methylcyclohexane] + CO[PH](=O)[O-].Cn1cc[n+](C)c1
- activity coefficient ([2]; 313.15 K): 257 ± 18

SMILES: CC1CCCC1 [methylcyclopentane] + CCn1cc[n+](C)c1.CO[PH](=O)[O-]
- activity coefficient ([2]; 313.15 K): 76 ± 5

SMILES: C[N+](=O)[O-] [nitromethane] + CCn1cc[n+](C)c1.CO[PH](=O)[O-]
- activity coefficient ([2]; 313.15 K): 0.75 ± 0.049
- activity coefficient ([2]; 333.15 K): 0.787 ± 0.051
- activity coefficient ([2]; 353.15 K): 0.831 ± 0.054
- activity coefficient ([2]; 373.15 K): 0.873 ± 0.056

SMILES: C[N+](=O)[O-] [nitromethane] + CO[PH](=O)[O-].Cn1cc[n+](C)c1
- activity coefficient ([2]; 313.15 K): 0.8 ± 0.05
- activity coefficient ([2]; 323.15 K): 0.81 ± 0.05
- activity coefficient ([2]; 333.15 K): 0.82 ± 0.05
- activity coefficient ([2]; 343.15 K): 0.83 ± 0.05

SMILES: CCCCCCCCC [nonane] + CCn1cc[n+](C)c1.CO[PH](=O)[O-]
- activity coefficient ([2]; 313.15 K): 617 ± 42
- activity coefficient ([2]; 333.15 K): 485 ± 33

SMILES: CCCCCCCCC [nonane] + CO[PH](=O)[O-].Cn1cc[n+](C)c1
- activity coefficient ([2]; 313.15 K): 1070 ± 74
- activity coefficient ([2]; 323.15 K): 1050 ± 72

SMILES: CCCCCCCC [octane] + CCn1cc[n+](C)c1.CO[PH](=O)[O-]
- activity coefficient ([2]; 313.15 K): 461 ± 32

SMILES: CCCC(C)=O [pentan-2-one] + CCn1cc[n+](C)c1.CO[PH](=O)[O-]
- activity coefficient ([2]; 313.15 K): 6.12 ± 0.42
- activity coefficient ([2]; 333.15 K): 6.13 ± 0.42
- activity coefficient ([2]; 353.15 K): 6.15 ± 0.42
- activity coefficient ([2]; 373.15 K): 6.18 ± 0.42

SMILES: CCCC(C)=O [pentan-2-one] + CO[PH](=O)[O-].Cn1cc[n+](C)c1
- activity coefficient ([2]; 313.15 K): 10.6 ± 0.7
- activity coefficient ([2]; 323.15 K): 10.5 ± 0.7
- activity coefficient ([2]; 333.15 K): 10.3 ± 0.7
- activity coefficient ([2]; 343.15 K): 10.1 ± 0.7

SMILES: CCC(=O)CC [pentan-3-one] + CCn1cc[n+](C)c1.CO[PH](=O)[O-]
- activity coefficient ([2]; 313.15 K): 5.77 ± 0.39
- activity coefficient ([2]; 333.15 K): 5.88 ± 0.4
- activity coefficient ([2]; 353.15 K): 6 ± 0.41
- activity coefficient ([2]; 373.15 K): 6.17 ± 0.42

SMILES: CCC(=O)CC [pentan-3-one] + CO[PH](=O)[O-].Cn1cc[n+](C)c1
- activity coefficient ([2]; 313.15 K): 10.2 ± 0.7
- activity coefficient ([2]; 323.15 K): 10.1 ± 0.7
- activity coefficient ([2]; 333.15 K): 10.1 ± 0.7
- activity coefficient ([2]; 343.15 K): 10 ± 0.7

SMILES: CCCO [propan-1-ol] + CCn1cc[n+](C)c1.CO[PH](=O)[O-]
- activity coefficient ([2]; 353.15 K): 0.207 ± 0.029
- activity coefficient ([2]; 373.15 K): 0.214 ± 0.029

SMILES: CCCO [propan-1-ol] + CO[PH](=O)[O-].Cn1cc[n+](C)c1
- activity coefficient ([2]; 343.15 K): 0.25 ± 0.03

SMILES: CC(C)O [propan-2-ol] + CCn1cc[n+](C)c1.CO[PH](=O)[O-]
- activity coefficient ([2]; 333.15 K): 0.261 ± 0.03
- activity coefficient ([2]; 353.15 K): 0.294 ± 0.031
- activity coefficient ([2]; 373.15 K): 0.314 ± 0.031

SMILES: c1ccncc1 [pyridine] + CCn1cc[n+](C)c1.CO[PH](=O)[O-]
- activity coefficient ([2]; 313.15 K): 1.77 ± 0.12
- activity coefficient ([2]; 333.15 K): 1.84 ± 0.12
- activity coefficient ([2]; 353.15 K): 1.95 ± 0.13
- activity coefficient ([2]; 373.15 K): 2 ± 0.14

SMILES: c1ccncc1 [pyridine] + CO[PH](=O)[O-].Cn1cc[n+](C)c1
- activity coefficient ([2]; 313.15 K): 2.15 ± 0.15
- activity coefficient ([2]; 323.15 K): 2.16 ± 0.15
- activity coefficient ([2]; 333.15 K): 2.17 ± 0.15
- activity coefficient ([2]; 343.15 K): 2.19 ± 0.15

SMILES: ClC(Cl)(Cl)Cl [tetrachloromethane] + CCn1cc[n+](C)c1.CO[PH](=O)[O-]
- activity coefficient ([2]; 313.15 K): 4.38 ± 0.3
- activity coefficient ([2]; 333.15 K): 4.96 ± 0.34

SMILES: ClC(Cl)(Cl)Cl [tetrachloromethane] + CO[PH](=O)[O-].Cn1cc[n+](C)c1
- activity coefficient ([2]; 313.15 K): 6.57 ± 0.45
- activity coefficient ([2]; 323.15 K): 6.83 ± 0.47
- activity coefficient ([2]; 333.15 K): 7.03 ± 0.48

SMILES: CCCCCCCCCCCCCC [tetradecane] + CCn1cc[n+](C)c1.CO[PH](=O)[O-]
- activity coefficient ([2]; 313.15 K): 3490 ± 240
- activity coefficient ([2]; 333.15 K): 3010 ± 210
- activity coefficient ([2]; 353.15 K): 2610 ± 180
- activity coefficient ([2]; 373.15 K): 2270 ± 160

SMILES: CCCCCCCCCCCCCC [tetradecane] + CO[PH](=O)[O-].Cn1cc[n+](C)c1
- activity coefficient ([2]; 313.15 K): 3560 ± 250
- activity coefficient ([2]; 323.15 K): 3220 ± 220
- activity coefficient ([2]; 333.15 K): 2980 ± 210
- activity coefficient ([2]; 343.15 K): 2890 ± 200

SMILES: c1ccsc1 [thiophene] + CCn1cc[n+](C)c1.CO[PH](=O)[O-]
- activity coefficient ([2]; 313.15 K): 1.99 ± 0.14
- activity coefficient ([2]; 333.15 K): 2.16 ± 0.15
- activity coefficient ([2]; 353.15 K): 2.5 ± 0.17
- activity coefficient ([2]; 373.15 K): 2.64 ± 0.18

SMILES: c1ccsc1 [thiophene] + CO[PH](=O)[O-].Cn1cc[n+](C)c1
- activity coefficient ([2]; 313.15 K): 2.47 ± 0.17
- activity coefficient ([2]; 323.15 K): 2.54 ± 0.17
- activity coefficient ([2]; 333.15 K): 2.58 ± 0.18
- activity coefficient ([2]; 343.15 K): 2.6 ± 0.18

SMILES: Cc1ccccc1 [toluene] + CCn1cc[n+](C)c1.CO[PH](=O)[O-]
- activity coefficient ([2]; 313.15 K): 6.53 ± 0.45
- activity coefficient ([2]; 333.15 K): 6.63 ± 0.45
- activity coefficient ([2]; 353.15 K): 6.82 ± 0.46
- activity coefficient ([2]; 373.15 K): 7.16 ± 0.49

SMILES: Cc1ccccc1 [toluene] + CO[PH](=O)[O-].Cn1cc[n+](C)c1
- activity coefficient ([2]; 313.15 K): 11.5 ± 0.78
- activity coefficient ([2]; 323.15 K): 11.4 ± 0.78
- activity coefficient ([2]; 333.15 K): 11.3 ± 0.77
- activity coefficient ([2]; 343.15 K): 11.2 ± 0.77

SMILES: ClC(Cl)Cl [trichloromethane] + CCn1cc[n+](C)c1.CO[PH](=O)[O-]
- activity coefficient ([2]; 313.15 K): 0.277 ± 0.03
- activity coefficient ([2]; 333.15 K): 0.358 ± 0.033
- activity coefficient ([2]; 353.15 K): 0.451 ± 0.036
- activity coefficient ([2]; 373.15 K): 0.544 ± 0.04

SMILES: ClC(Cl)Cl [trichloromethane] + CO[PH](=O)[O-].Cn1cc[n+](C)c1
- activity coefficient ([2]; 313.15 K): 0.39 ± 0.03
- activity coefficient ([2]; 323.15 K): 0.43 ± 0.04
- activity coefficient ([2]; 333.15 K): 0.48 ± 0.04
- activity coefficient ([2]; 343.15 K): 0.51 ± 0.04

SMILES: CCCCCCCCCCCCC [tridecane] + CCn1cc[n+](C)c1.CO[PH](=O)[O-]
- activity coefficient ([2]; 313.15 K): 2560 ± 180
- activity coefficient ([2]; 333.15 K): 2130 ± 150
- activity coefficient ([2]; 353.15 K): 1850 ± 130
- activity coefficient ([2]; 373.15 K): 1300 ± 89

SMILES: CCCCCCCCCCCCC [tridecane] + CO[PH](=O)[O-].Cn1cc[n+](C)c1
- activity coefficient ([2]; 313.15 K): 2380 ± 160
- activity coefficient ([2]; 323.15 K): 2220 ± 150
- activity coefficient ([2]; 333.15 K): 2160 ± 150
- activity coefficient ([2]; 343.15 K): 2120 ± 150

SMILES: CCN(CC)CC [triethylamine] + CCn1cc[n+](C)c1.CO[PH](=O)[O-]
- activity coefficient ([2]; 313.15 K): 30.2 ± 2.1
- activity coefficient ([2]; 333.15 K): 48 ± 3.3

SMILES: CCN(CC)CC [triethylamine] + CO[PH](=O)[O-].Cn1cc[n+](C)c1
- activity coefficient ([2]; 313.15 K): 9.04 ± 0.62
- activity coefficient ([2]; 323.15 K): 12.7 ± 0.9

SMILES: CCCCCCCCCCC [undecane] + CCn1cc[n+](C)c1.CO[PH](=O)[O-]
- activity coefficient ([2]; 313.15 K): 1340 ± 93
- activity coefficient ([2]; 333.15 K): 1080 ± 74
- activity coefficient ([2]; 353.15 K): 888 ± 61

SMILES: CCCCCCCCCCC [undecane] + CO[PH](=O)[O-].Cn1cc[n+](C)c1
- activity coefficient ([2]; 313.15 K): 1530 ± 110
- activity coefficient ([2]; 323.15 K): 1470 ± 100
- activity coefficient ([2]; 333.15 K): 1400 ± 97
- activity coefficient ([2]; 343.15 K): 1330 ± 92
